IC50 and inhibition data for 12 compounds are collected here from patent US20060247303A1, “7H-dibenzo[b,g][1,5]dioxocin-5-one derivatives and use thereof” (BAYER HEALTHCARE AG, priority 2002, published 2006).

Where two headings read alike, the source gives them in different places.

The target in one experiment is T1, CETP (Homo sapiens, UniProt P11597).
T1 construct: enriched CETP fraction, obtained from human plasma by means of hydrophobic chromatography; from tissue; host or cells: human plasma
T1 sequence (P11597 18-493): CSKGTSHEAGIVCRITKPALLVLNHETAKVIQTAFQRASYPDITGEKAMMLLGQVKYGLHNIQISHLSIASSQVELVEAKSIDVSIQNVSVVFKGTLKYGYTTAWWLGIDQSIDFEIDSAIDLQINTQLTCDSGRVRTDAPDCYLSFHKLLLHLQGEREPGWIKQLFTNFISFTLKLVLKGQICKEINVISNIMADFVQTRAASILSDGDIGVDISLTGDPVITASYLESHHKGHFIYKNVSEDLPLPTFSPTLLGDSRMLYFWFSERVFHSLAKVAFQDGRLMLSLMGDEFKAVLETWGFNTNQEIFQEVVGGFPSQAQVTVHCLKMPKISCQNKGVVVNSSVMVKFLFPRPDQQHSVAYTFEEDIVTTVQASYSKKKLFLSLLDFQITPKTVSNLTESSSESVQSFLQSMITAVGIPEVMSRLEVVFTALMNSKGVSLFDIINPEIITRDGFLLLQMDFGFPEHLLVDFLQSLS
As to the kind of experiment: CETP fluorescence test. Conditions: CETP from human plasma, transfer of fluorescent cholesterol ester between liposomes, 37° C., 4 hours; read-out: IC50 [nM] Fluor. test. The format is biochemical. How it is done: CETP is obtained in partially purified form from human plasma by differential centrifugation and column chromatography and used for the test. To this end, human plasma is adjusted to a density of 1.21 g per ml using NaBr and centrifuged at 4° C. at 50 000 rpm for 18 h. The bottom fraction (d>1.21 g/ml) is applied to a Sephadex® Phenyl-Sepharose 4B (Pharmacia) column, washed with 0.15 M NaCl/0.001 M tris HCl pH 7.4 and then eluted with distilled water. The CETP-active fractions are pooled, dialysed against 50 mM sodium acetate pH 4.5 and applied to a CM-Sepharose® column (Pharmacia). The mixture is then eluted using a linear gradient (0-1 M NaCl). The pooled CETP fractions are dialysed against 10 mM Tris HCl pH 7.4 and then further purified by chromatography on a Mono Q® column (Pharmacia).
Measurement of the CETP-catalysed transfer of a fluorescent cholesterol ester between liposomes—modified according to the procedure of Bisgaier et al., J. Lipid Res. 34, 1625 (1993):
For the production of the donor liposomes, 1 mg of cholesteryl 4,4-difluoro-5,7-dimethyl-4-bora-3a,4a-diaza-s-indacene-3-dodecanoate (cholesteryl BODIPY® FL C12, Molecular Probes) is dissolved in 600 μl of dioxane with 5.35 mg of triolein and 6.67 mg of phosphatidylcholine with gentle warming in an ultrasonic bath and this solution is added very slowly with ultrasonication to 63 ml of 50 mM tris/HCl, 150 mM NaCl, 2 mM EDTA buffer pH 7.3 at RT.
The suspension is then ultrasonicated under an N2 atmosphere for 30 minutes in the Braukson ultrasonic bath at about 50 watts, the temperature being kept at about 20° C.
The acceptor liposomes are obtained analogously from 86 mg of cholesteryl oleate, 20 mg of triolein and 100 mg of phosphatidylcholine dissolved in 1.2 ml of dioxane and 114 ml of above buffer by ultrasonication at 50 watts (20° C.) for 30 minutes.
For testing, a test mix consisting of 1 part of above buffer, 1 part of donor liposomes and 2 parts of acceptor liposomes is used.
80 μl of test mix are treated with 1-3 μg of enriched CETP fraction, obtained from human plasma by means of hydrophobic chromatography, and 2 μl of the substance to be investigated in DMSO and incubated at 37° C. for 4 hours.
The change in the fluorescence at 485/535 nm is a measure of the CE transfer; the inhibition of the transfer in comparison to the control batch without substance is determined.

The target of experiment [1] is T2, CETP activity in the serum (Homo sapiens, UniProt P11597).
T2 construct: from tissue; host or cells: serum of transgenic hCETP mice
T2 sequence (P11597 18-493): T1 sequence (P11597 18-493)
As to the kind of experiment: Measurement of the ex vivo activities on transgenic hCETP mice. Conditions: mouse, serum cholesteryl ester transport; for inhibition at 100 mg/kg: 100 mg/kg oral; for inhibition at 30 mg/kg: 30 mg/kg oral. The format is in vivo. How it is done:
To test for CETP-inhibitory activity, the substances are administered orally using a stomach tube to transgenic hCETP mice bred in-house (Dinchuk et al. BBA (1995) 1295-301). To this end, male animals are randomly assigned to groups having an equal number of animals, as a rule n=3, one day before the start of the experiment. Before administration of the substance, blood is taken from each mouse by puncture of the retro-orbital venous plexus for the determination of its basal CETP activity in the serum (T1). The test substance is then administered to the animals using the stomach tube. At specific times after administration of the test substance, blood is taken from the animals by puncture a second time (T2), as a rule 0.5, or 1 and 2 h after substance administration, but if appropriate this can also be carried out at another time.
In order to be able to assess the inhibitory activity of a substance, for each time, i.e. 0.5 or 1 or 2 h, a corresponding control group is employed whose animals only receive the formulating agent without substance. In the control animals, the second blood sampling per animal is carried out as in the substance-treated animals in order to be able to determine the change in the CETP activity without inhibitor over the corresponding experimental time interval (0.5, 1 or 2 h).
After termination of the clotting, the blood samples are centrifuged and the serum is removed by pipette.
For the determination of the CETP activity, the cholesteryl ester transport over 4 h is determined. To this end, as a rule 2 μl of serum are employed in the test batch and the test is carried out as described under “CETP fluorescence test”.
The differences in the cholesteryl ester transport [pM CE*/h (T2)−pM CE*/h (T1)] are calculated for each animal and averaged in the groups. A substance which at one of the times reduces the cholesteryl ester transport by >30% is regarded as active.

[2] abbreviates: 0.5 h after administration, read-out: % inhibition at 100 mg/kg 0.5 h.
Where [3] appears, read: 1 h after administration, read-out: % inhibition at 100 mg/kg 1 h.
Setting [4] is: 2 h after administration, read-out: % inhibition at 100 mg/kg 2 h.
Where [5] appears, read: 0.5 h after administration, read-out: % inhibition at 30 mg/kg 0.5 h.
[6] abbreviates: 1 h after administration, read-out: % inhibition at 30 mg/kg 1 h.
[7] abbreviates: 2 h after administration, read-out: % inhibition at 30 mg/kg 2 h.
The mark [8] stands for this setting: 3 h after administration, read-out: % inhibition at 30 mg/kg 3 h.
Where [9] appears, read: 6 h after administration, read-out: % inhibition at 30 mg/kg 6 h.

`COc1c([C@@H](O)CC(C)C)ccc2c1C(=O)OCc1cc(C)cc(OC(=O)CC(C)(C)C)c1O2` [Example A-23]: the IC50 on CETP was found to be 250 nM. The inhibition at 100 mg/kg was 59% in experiment [1] (setting [2]), 52% in experiment [1] (setting [3]) and 31% in experiment [1] (setting [4]).

Consider `COc1c([C@@H](O)CC(C)C)ccc2c1C(=O)OCc1c(Cl)c(C)c(Br)c(OC(=O)C3(C)CC4CCC3C4)c1O2` (stereo partly shown) [Example B-45], for which the IC50 at CETP worked out at 70 nM. Besides, the inhibition at 30 mg/kg in experiment [1] (setting [5]) turned out to be 70%; in experiment [1] (setting [6]), 71%; in experiment [1] (setting [7]), 63%.

On to `COc1c([C@@H](O)CC(C)C)ccc2c1C(=O)OCc1c(Br)c(C)c(Br)c(OC(=O)C3(C)CC4CCC3C4)c1O2` (stereo partly shown) [Example B-69], for which the IC50 on CETP was found to be 100 nM. Further, the values for the inhibition at 30 mg/kg in experiment [1] (setting [5]), in experiment [1] (setting [6]) and in experiment [1] (setting [7]) were 52%, 55% and 27%, respectively.

Regarding `COc1c([C@@H](O)CC(C)C)ccc2c1C(=O)OCc1c(C)c(C)c(C)c(OC(=O)C3(C)CC4CCC3C4)c1O2` (stereo partly shown) [Example B-70], on CETP, the IC50 came to 150 nM. Further, the inhibition at 30 mg/kg in experiment [1] (setting [5]) was determined as 48%; in experiment [1] (setting [6]) it was 30%; in experiment [1] (setting [7]), 44%.

As to `COc1c([C@@H](O)CC(C)C)ccc2c1C(=O)OCc1c(Cl)c(C)c(Cl)c(OC(=O)C3(C)CC4CCC3C4)c1O2` (stereo partly shown) [Example B-81], the IC50 at CETP was 60 nM. Moreover, the inhibition at 30 mg/kg in experiment [1] (setting [5]) came to 54%; in experiment [1] (setting [6]), 59%; in experiment [1] (setting [7]), 55%.

For the compound `COc1c([C@@H](O)CC(C)C)ccc2c1C(=O)OCc1c(Cl)c(C)c(Cl)c(OC(=O)C3(C)CCCCC3)c1O2` [Example B-84], at CETP, the IC50 was determined as 100 nM. The inhibition at 30 mg/kg in experiment [1] (setting [5]) amounted to 31%; in experiment [1] (setting [6]), 28%; in experiment [1] (setting [7]) it was 35%.

For the compound `COc1c([C@@H](O)CC(C)C)ccc2c1C(=O)OCc1cc(C)cc(OC(=O)N3C4CCC3CC4)c1O2` [Example B-147], on CETP, the concentration for half-maximal inhibition (IC50) came to 200 nM. In addition, the inhibition at 100 mg/kg in experiment [1] (setting [2]) came out at 76%; in experiment [1] (setting [3]), 54%; in experiment [1] (setting [4]), 33%.

In the case of `COc1c([C@@H](O)CC(C)C)ccc2c1C(=O)OCc1c(Cl)c(C)c(Br)c(OC(=O)[C@]3(C)CC4C=CC3C4)c1O2` (stereo partly shown) [Example C-31], the figures for the inhibition at 30 mg/kg in experiment [1] (setting [5]), in experiment [1] (setting [6]) and in experiment [1] (setting [7]) were 83%, 76% and 64%, respectively.

For the compound `COc1c([C@@H](O)CC(C)C)ccc2c1C(=O)OCc1c(Cl)c(C)c(C3CC3)c(OC(=O)C3(C)C4CCC3CC4)c1O2` (stereo partly shown) [Example C-56], on CETP, the IC50 is 57 nM. Moreover, the inhibition at 30 mg/kg worked out at 66% in experiment [1] (setting [6]), 53% in experiment [1] (setting [8]) and 14% in experiment [1] (setting [9]).

With `COc1c([C@@H](O)CC(C)C)ccc2c1C(=O)OCc1cc(C)c(C3CC3)c(OC(=O)C3(C)C4CCC3CC4)c1O2` (stereo partly shown) [Example C-59], the inhibition at 30 mg/kg amounted to 52% in experiment [1] (setting [6]), 32% in experiment [1] (setting [8]) and 26% in experiment [1] (setting [9]).

In the case of `COCc1c(C)c(Cl)c2c(c1OC(=O)C1(C)C3CCC1CC3)Oc1ccc(C(O)CC(C)(C)C)c(OC)c1C(=O)OC2` (stereo not shown) [Example C-71], the IC50 on CETP stood at 40 nM. For the same compound, the inhibition at 30 mg/kg in experiment [1] (setting [6]) was 60%; in experiment [1] (setting [8]), 29%; in experiment [1] (setting [9]), 7%.

`CCc1c(C)c(Cl)c2c(c1OC(=O)C1(C)C3CCC1CC3)Oc1ccc([C@@H](O)CC(C)C)c(OC)c1C(=O)OC2` (stereo partly shown) [Example C-118]: the IC50 on CETP was 58 nM. Besides, the inhibition at 30 mg/kg in experiment [1] (setting [6]) came out at 75%; in experiment [1] (setting [8]), 50%; in experiment [1] (setting [9]), 20%.

By IC50 is commonly meant the concentration that inhibits the measured activity by half.
